The text below walks through data of patent publication EP2540163A1, “Nematocide N-cyclopropyl-sulfonylamide derivatives” (Bayer CropScience AG, priority 2011, dated 2013).

SMILES strings stand for the structures.

One data set is described as follows: logP by HPLC on reversed-phase column (C 18), EEC Directive 79/831 Annex V.A8, Method B (0.1% aqueous formic acid / acetonitrile, 40°C). The format is physicochemical. The note with it: c18 reversed-phase hplc; LogP method B: HPLC reversed-phase C 18, 40°C, 0.1% aqueous formic acid / acetonitrile. The method, then:
(§1) Calibration was carried out using unbranched alkan-2-ones (having 3 to 16 carbon atoms) with known logP values (determination of the logP values by the retention times using linear interpolation between two successive alkanones).
As a reminder, the chromatographic logP is a lipophilicity value derived from retention on a column. Lower therefore signals a more hydrophilic compound. Turning to `CCOc1nn(C)cc1C(=O)N(C1CC1)S(=O)(=O)c1ccc(Oc2ccc(C)nc2)cc1Cl` [compound 525], the chromatographic logP amounted to 2.2.
On the same count and under the same terms, in the case of `CCOc1nn(C)cc1C(=O)N(C1CC1)S(=O)(=O)c1ccc(Oc2cccc(Cl)c2)c(Cl)c1` [compound 546] it was 4.3; in that of `CCOc1nn(C)cc1C(=O)N(C1CC1)S(=O)(=O)c1ccc(Oc2ccc(Cl)cc2)cc1Cl` [compound 535], 4.
The same measure, in the same setting: to `CC(C)c1nn(C)c(F)c1C(=O)N(C1CC1)S(=O)(=O)c1ccc(Cl)cc1Cl` [compound 96] belongs 3.8; to `CCCOc1nn(C)cc1C(=O)N(C1CC1)S(=O)(=O)c1ccc(Oc2ccc(Br)c(Cl)c2)cc1Br` [compound 304], 5.
Still for that read-out and setting: in the case of `CCOc1nn(C)cc1C(=O)N(C1CC1)S(=O)(=O)c1ccc(Oc2ccc(C(F)(F)F)cc2)c(Cl)c1` [compound 550] it was 4.4; in that of `CCc1nn(C)c(F)c1C(=O)N(C1CC1)S(=O)(=O)c1csc(Cl)c1Cl` [compound 438], 4; in that of `Cn1nc(C(F)(F)F)c(C(=O)N(C2CC2)S(=O)(=O)c2cccc(Cl)c2Cl)c1F` [compound 357], 3.3.
Take `Cc1cc(Cl)cc(Cl)c1S(=O)(=O)N(C(=O)c1c(C(F)(F)F)nn(C)c1F)C1CC1` [compound 367]: the chromatographic logP stood at 2.6.
Regarding `CCc1nn(C)c(F)c1C(=O)N(C1CC1)S(=O)(=O)c1c(C)nn(C)c1Cl` [compound 382], the chromatographic logP was 2.3.
The same measure, in the same setting: to `COc1nn(C)cc1C(=O)N(C1CC1)S(=O)(=O)c1c(C)nn(C)c1Cl` [compound 444] belongs 1.7.
On the same count and under the same terms, in the case of `Cn1ncc(I)c1C(=O)N(C1CC1)S(=O)(=O)c1ccc(Cl)c(Cl)c1Cl` [compound 663] it was 3.4.
Same read-out and setting: to `COc1nn(C)cc1C(=O)N(C1CC1)S(=O)(=O)c1ccc(Oc2ccc(Br)c(Cl)c2)cc1Br` [compound 480] belongs 4.2.
Turning to `O=C(c1cccnc1F)N(C1CC1)S(=O)(=O)c1cccc(Cl)c1Cl` [compound 649], the chromatographic logP was 2.4.
Still for that read-out and setting: to `Cn1nc(C2CC2)c(C(=O)N(C2CC2)S(=O)(=O)c2ccc(Cl)c(Cl)c2Cl)c1F` [compound 224] belongs 3.9; to `CCCOc1nn(C)cc1C(=O)N(C1CC1)S(=O)(=O)c1ccc(Oc2ccc(Cl)c(C(F)(F)F)c2)cc1Br` [compound 302], 4.9; to `CCOc1nn(C)cc1C(=O)N(C1CC1)S(=O)(=O)c1ccc(Oc2ccc(C(F)(F)F)cc2)cc1Cl` [compound 538], 4.1.
Still for that read-out and setting: in the case of `Cn1cc(C(=O)N(C2CC2)S(=O)(=O)c2cccc(Cl)c2Cl)c(C(F)F)n1` [compound 221] it was 2.9; in that of `COc1nn(C)c(Cl)c1C(=O)N(C1CC1)S(=O)(=O)c1ccc(Oc2ccc(Br)cc2)cc1` [compound 284], 4.3.

Staying with this data set, now noted: c18 reversed-phase hplc; LogP method B: HPLC, 40°C, 0.1% aqueous formic acid and acetonitrile, gradient 10% to 90% acetonitrile.
Consider `Cc1nn(C)c(F)c1C(=O)N(C1(c2ccccc2)CC1)S(=O)(=O)c1cccc(Cl)c1Cl` [compound 670], for which the chromatographic logP came to 4.1.

The nature of another data set: logP by HPLC on reversed-phase column (C 18), EEC Directive 79/831 Annex V.A8, Method A (0.1% aqueous phosphoric acid / acetonitrile, 43°C). The format is physicochemical. The note with it: c18 reversed-phase hplc; LogP method A: HPLC reversed-phase C 18, 43°C, 0.1% aqueous phosphoric acid / acetonitrile. The protocol: as §1
On to `Cc1nn(C)c(F)c1C(=O)N(C1CC1)S(=O)(=O)c1cnc(Cl)c(Br)c1` [compound 447], for which the chromatographic logP stood at 3.08.
The same measure, in the same setting: to `COCCn1c(C)c(C(=O)N(C2CC2)S(=O)(=O)c2cccc(Cl)c2)sc1=O` [compound 609] belongs 2.01; to `Cc1cc(C)c(C(=O)N(C2CC2)S(=O)(=O)c2cccc(Cl)c2Cl)c(Cl)n1` [compound 650], 3.57; to `Cc1nn(C)c(Cl)c1C(=O)N(C1CC1)S(=O)(=O)c1ccc(Cl)c(Cl)c1` [compound 407], 3.63.
The same measure, in the same setting: in the case of `CCOC(=O)c1[nH]c(C)c(C(=O)N(C2CC2)S(=O)(=O)c2cccc(Cl)c2)c1C` [compound 29] it was 3.46.
On the same count and under the same terms, in the case of `Cc1nn(C)c(F)c1C(=O)N(C1CC1)S(=O)(=O)c1cccc(Cl)c1` [compound 176] it was 2.82; in that of `O=C(c1cccnc1)N(C1CC1)S(=O)(=O)c1cccc(Cl)c1` [compound 642], 2.3; in that of `O=C(c1cccnc1)N(C1CC1)S(=O)(=O)c1ccc(Cl)c(Cl)c1` [compound 639], 2.91.
With `Cc1nc(C(=O)N(C2CC2)S(=O)(=O)c2ccc(Cl)c(Cl)c2)cs1` [compound 70], the chromatographic logP turned out to be 3.46.
On the same count and under the same terms, in the case of `Cc1nn(C)c(F)c1C(=O)N(C1CC1)S(=O)(=O)c1ccc(Cl)cc1Cl` [compound 186] it was 2.94; in that of `CCc1onc(C(C)C)c1C(=O)N(C1CC1)S(=O)(=O)c1ccc(Cl)cc1Cl` [compound 596], 4.41.
Same read-out and setting: to `Cc1c(C(=O)N(C2CC2)S(=O)(=O)c2cccc(Cl)c2)sc(=O)n1Cc1ccccc1` [compound 613] belongs 2.01; to `O=C(c1cccnc1Cl)N(C1CC1)S(=O)(=O)c1cccc(Cl)c1` [compound 643], 2.91; to `Cc1nn(C)c(F)c1C(=O)N(C1CC1)S(=O)(=O)c1cccnc1Cl` [compound 446], 1.96.
Regarding `CCOC(=O)c1[nH]c(C)c(C(=O)N(C2CC2)S(=O)(=O)c2ccc(Cl)cc2Cl)c1C` [compound 32], the chromatographic logP worked out at 3.63.
With `O=C(c1cc(Br)c(Br)o1)N(C1CC1)S(=O)(=O)c1ccccc1Cl` [compound 1], the chromatographic logP is 3.58.
`Cc1ccsc1C(=O)N(C1CC1)S(=O)(=O)c1cccc(Cl)c1` [compound 13] gave a chromatographic logP of 3.64.
`Cc1nn(C)c(F)c1C(=O)N(C1CC1)S(=O)(=O)c1ccccc1Cl` [compound 180] yielded a chromatographic logP of 2.34.
Turning to `Cc1nc(C(=O)N(C2CC2)S(=O)(=O)c2ccc(Cl)cc2Cl)cs1` [compound 71], the chromatographic logP is 3.03.
The same measure, in the same setting: to `Cc1nn(C)c(C)c1C(=O)N(C1CC1)S(=O)(=O)c1ccc(Cl)c(C(F)(F)F)c1` [compound 411] belongs 3.37.
On the same count and under the same terms, to `Cc1nn(C)c(F)c1C(=O)N(C1CC1)S(=O)(=O)c1ccc(C(F)(F)F)cc1Cl` [compound 213] belongs 3.19; to `Cc1cc(C)c(C(=O)N(C2CC2)S(=O)(=O)c2ccc(Cl)c(Cl)c2Cl)c(Cl)n1` [compound 651], 4.16; to `Cc1nn(C)c(F)c1C(=O)N(C1CC1)S(=O)(=O)c1cccc(Cl)c1Cl` [compound 210], 2.77.
In turn, `CCc1onc(C(C)C)c1C(=O)N(C1CC1)S(=O)(=O)c1ccc(Cl)c(C(F)(F)F)c1` [compound 594] gave a chromatographic logP of 4.82.
On the same count and under the same terms, to `Cc1ccsc1C(=O)N(C1CC1)S(=O)(=O)c1ccccc1Cl` [compound 14] belongs 3.12.
On the same count and under the same terms, to `Cc1nc(C(F)(F)F)c(C(=O)N(C2CC2)S(=O)(=O)c2ccccc2Cl)s1` [compound 59] belongs 3.2; to `Cc1ncc(C(=O)N(C2CC2)S(=O)(=O)c2ccc(Cl)cc2Cl)s1` [compound 64], 2.91.
As for `CCc1onc(C(C)C)c1C(=O)N(C1CC1)S(=O)(=O)c1cccc(Cl)c1` [compound 589], the chromatographic logP worked out at 4.18.

Staying with this data set, now noted: c18 reversed-phase hplc; LogP method A: HPLC, 43°C, 0.1% aqueous phosphoric acid, acetonitrile, gradient 10% to 90% acetonitrile.
Take `Cc1nn(C)c(F)c1C(=O)N(C1CC1c1ccccc1)S(=O)(=O)c1ccccc1Cl` (centres unmarked) [compound 676]: the chromatographic logP came out at 3.27.
Same read-out and setting: to `Cc1nn(C)c(F)c1C(=O)N(C1(c2ccc(Cl)cc2)CC1)S(=O)(=O)c1cccc(Cl)c1Cl` [compound 669] belongs 4.44.
